Measurements taken from patent US11149008B2, “Sulfamide derivatives and preparation method and use thereof” (HitGen Ltd., priority 2015, dated 2021).

Tests used:
Assay type in all cases: biochemical
HDAC 6 = target: T1, HDAC 6 (Homo sapiens, UniProt Q9UBN7); assay: Enzyme activity detection of histone deacetylase 6 (fluorogenic substrate deacetylation); conditions: 0.35 ng/μL HDAC 6, 20 μM substrate, 30 min at 37° C.; IC50 class
T1 construct: purchased BPS Bioscience #50076
T1 sequence (Q9UBN7 1-1215): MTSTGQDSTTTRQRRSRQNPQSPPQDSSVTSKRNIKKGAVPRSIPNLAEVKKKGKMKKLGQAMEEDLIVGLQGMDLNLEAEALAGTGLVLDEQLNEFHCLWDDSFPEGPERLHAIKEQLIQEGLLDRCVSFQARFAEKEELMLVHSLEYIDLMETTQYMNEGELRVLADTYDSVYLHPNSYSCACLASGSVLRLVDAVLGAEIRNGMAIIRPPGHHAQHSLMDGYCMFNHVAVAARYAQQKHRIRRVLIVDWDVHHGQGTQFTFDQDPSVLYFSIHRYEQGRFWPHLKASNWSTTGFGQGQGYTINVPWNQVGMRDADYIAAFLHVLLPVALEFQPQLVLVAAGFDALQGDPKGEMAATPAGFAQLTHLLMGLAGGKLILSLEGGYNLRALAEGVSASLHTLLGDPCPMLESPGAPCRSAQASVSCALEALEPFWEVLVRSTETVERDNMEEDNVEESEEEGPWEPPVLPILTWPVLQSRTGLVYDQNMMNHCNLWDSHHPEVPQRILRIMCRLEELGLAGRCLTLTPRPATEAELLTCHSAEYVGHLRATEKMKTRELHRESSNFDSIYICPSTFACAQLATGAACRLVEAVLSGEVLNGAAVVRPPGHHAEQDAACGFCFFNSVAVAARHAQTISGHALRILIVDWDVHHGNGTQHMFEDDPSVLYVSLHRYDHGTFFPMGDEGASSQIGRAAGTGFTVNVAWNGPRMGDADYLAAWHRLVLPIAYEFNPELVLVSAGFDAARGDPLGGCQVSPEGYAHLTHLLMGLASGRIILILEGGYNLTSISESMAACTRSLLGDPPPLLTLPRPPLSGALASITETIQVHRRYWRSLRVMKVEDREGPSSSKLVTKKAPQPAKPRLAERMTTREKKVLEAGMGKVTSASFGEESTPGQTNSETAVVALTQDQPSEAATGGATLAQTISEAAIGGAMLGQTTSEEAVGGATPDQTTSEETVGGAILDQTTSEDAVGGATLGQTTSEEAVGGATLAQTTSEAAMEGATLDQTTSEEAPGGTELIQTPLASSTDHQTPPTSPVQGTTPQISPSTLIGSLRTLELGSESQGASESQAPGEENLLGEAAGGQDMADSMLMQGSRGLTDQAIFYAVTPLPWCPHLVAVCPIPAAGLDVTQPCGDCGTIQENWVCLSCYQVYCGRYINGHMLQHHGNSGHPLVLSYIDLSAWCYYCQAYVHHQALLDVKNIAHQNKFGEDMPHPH
Text: (§1) During the deacetylation detection of a substrate, the HDAC inhibition activity of the compound of the present invention was detected.
A: Enzyme Activity Detection of Histone Deacetylase 6 (#50076, BPS Bioscience)
(§2) Acetyl on the substrate was removed by the HDAC 6, so that the substrate was activated, and the developing liquid added subsequently could act on the substrate to release the fluorescent group. The size of the fluorescence signal reflected the activity of the HDAC 6. The IC50 detection method for this enzyme was disclosed in Chuping Xu, Elisabetta Soragni Improved Histone Deacetylase Inhibitors as Therapeutics for the Neurdegenerative Disease Friedreich's Ataxia: A New Synthetic Route. The total reaction system (100 μL/well) contained 0.35 ng/μL of HDAC 6, 20 μM of the substrate and the compound in different concentrations. The reaction system was incubated for 30 min at 37° C., and the fluorescence signal was then measured. The inhibition effect of the compound was determined from the obtained data, a concentration response curve was obtained by using the inhibition effect and the concentration of the compound, and the value of IC50 was fitted according to a four-parameter model.
(§3) The activities of the compounds prepared in the embodiments against the histone deacetylases 1, 3 and 6 (i.e., HDAC 1, HDAC 3 and HDAC 6) were detected by the above methods, and the test results were shown in Table 2, where the measurements of IC50 of the compounds were classified according to the following description: […]

HDAC 3 = target: T2, HDAC 3 (Homo sapiens, UniProt O15379); assay: Enzyme activity detection of histone deacetylase 3 (fluorogenic substrate deacetylation); conditions: 0.16 ng/μL HDAC 3, 10 μM substrate; IC50 class
T2 construct: purchased BPS Bioscience #50003
T2 sequence (O15379 whole entry): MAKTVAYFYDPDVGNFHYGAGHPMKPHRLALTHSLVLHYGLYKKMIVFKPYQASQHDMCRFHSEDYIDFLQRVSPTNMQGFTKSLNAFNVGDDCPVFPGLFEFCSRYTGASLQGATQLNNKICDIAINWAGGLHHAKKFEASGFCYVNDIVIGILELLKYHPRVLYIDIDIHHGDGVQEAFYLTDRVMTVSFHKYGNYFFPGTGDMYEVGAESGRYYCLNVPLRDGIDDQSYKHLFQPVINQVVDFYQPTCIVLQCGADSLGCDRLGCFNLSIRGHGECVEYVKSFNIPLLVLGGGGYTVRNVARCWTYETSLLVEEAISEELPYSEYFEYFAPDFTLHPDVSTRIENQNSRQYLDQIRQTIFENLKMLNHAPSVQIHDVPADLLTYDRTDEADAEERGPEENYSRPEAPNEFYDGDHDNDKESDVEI
T2 sequence (Q9Y618 395-489 partner limits assumed): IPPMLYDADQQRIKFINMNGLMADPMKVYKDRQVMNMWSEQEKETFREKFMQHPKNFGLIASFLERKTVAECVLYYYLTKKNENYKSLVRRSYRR
Text: as §1
B: Enzyme Activity Detection of Histone Deacetylase 3 (#50003, BPS Bioscience)
as §2, with “3,” for “6,”, “3.” for “6.”, “0.16” for “0.35”, “3, 10” for “6, 20”, “The” for “The reaction system was incubated for 30 min at 37° C., and the”, “detected online at Ex/Em=360/460.” for “then measured.”
as §3

HDAC 1 = HDAC 1 (Homo sapiens, UniProt Q13547); assay: Enzyme activity detection of histone deacetylase 1 (fluorogenic substrate deacetylation); conditions: 0.28 ng/μL HDAC 1, 10 μM substrate; IC50 class
HDAC 1, sequence (Q13547 whole entry, species assumed): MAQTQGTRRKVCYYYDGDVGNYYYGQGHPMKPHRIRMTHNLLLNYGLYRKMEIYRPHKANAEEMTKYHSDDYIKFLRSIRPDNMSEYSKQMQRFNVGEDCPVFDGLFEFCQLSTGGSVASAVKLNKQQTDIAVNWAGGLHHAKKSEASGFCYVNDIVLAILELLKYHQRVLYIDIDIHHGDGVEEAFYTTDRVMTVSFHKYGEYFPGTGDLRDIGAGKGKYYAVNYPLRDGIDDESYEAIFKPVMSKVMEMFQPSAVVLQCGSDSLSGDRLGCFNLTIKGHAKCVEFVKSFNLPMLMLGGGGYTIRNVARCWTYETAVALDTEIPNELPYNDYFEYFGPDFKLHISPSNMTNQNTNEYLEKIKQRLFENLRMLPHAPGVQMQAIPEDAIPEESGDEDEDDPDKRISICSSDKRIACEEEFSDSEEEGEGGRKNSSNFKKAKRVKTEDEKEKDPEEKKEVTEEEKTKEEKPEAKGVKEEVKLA
Text: as §1
C: Enzyme Activity Detection of Histone Deacetylase 1
as §2, with “1,” for “6,”, “1.” for “6.”, “0.28” for “0.35”, “1, 10” for “6, 20”, “The” for “The reaction system was incubated for 30 min at 37° C., and the”, “detected online at Ex/Em=360/460.” for “then measured.”
as §3

Measured: IC50

CN1CCN(c2ccc(-c3ccc(S(=O)(=O)N4CC=C(C(=O)NO)CC4)cc3)cc2)CC1 [Compound 29, N-hydroxyl-1-((4′-(4-methylpiperazinyl)-[1,1′-biphenyl]-4-yl)sulfonyl)-1,2,3,6-tetrahydropyridine-4-formamide]
< 100 nM: all assays above
